This test deals with T1, human 5-HT6 receptor (Homo sapiens, UniProt P50406).
T1 construct: host or cells: CHO-K1 cells, stably transfected; membranes prepared in house
The experiment in a line: Human 5-HT6 Receptor Binding Assay ([3H]LSD displacement, scintillation beads). The settings on record: membranes of CHO-K1 cells with recombinant human 5-HT6, 4 nM [3H]LSD; Table 1, class symbols; read-out: h5-HT6 (Ki). Here is the method:
Human 5-HT6 Receptor Binding Assay
Membranes were prepared from CHO—K1 cells stably transfected with the human 5-HT6 receptor (Euroscreen; ES-316-C). The cells were grown in Gibco Advanced DMEM-F12 (Cat#12634010) containing 2% dialyzed FBS (Hyclone Cat#SH30079.03). The cells were harvested in phosphate buffered saline (PBS) containing 0.1 mM EDTA and pelleted by centrifugation (1000×g), the supernatant was discarded and the pellets were stored at −80° C. prior to membrane preparation. Membranes were prepared as previously described (J Bio Chem. 1992, 267 (14) 9844-51). Briefly, frozen cell pellet was resuspended in a lysis buffer containing 5 mM Tris-HCl (pH 7.5), 5 mM EDTA and 1 complete EDTA-free protease inhibitor tablet (Roche Applied Science, Indianapolis, Ind.) per 50 mL buffer, and homogenized with a tissue homogenizer. The cell lysate was then centrifuged at 40,000×g for 30 min at 4° C. to collect the membranes. The membrane pellets were washed in membrane buffer (50 mM Tris-HCl (pH 7.5), 0.6 mM EDTA, 5 mM MgCl2, 1 complete EDTA-free protease inhibitor tablet per 50 mL buffer) using a tissue homogenizer. The membranes were centrifuged at 40,000×g for 30 min at 4° C. and the pellets were resuspended in membrane buffer containing 250 mM sucrose, and protein concentration was determined using the Coomassie Plus kit (Pierce Biotechnology, Rockford, Ill.).
Membranes prepared from cells expressing recombinant human 5-HT6 receptor (h5-HT6) were resuspended in assay buffer containing 50 mM Tris HCl, (pH7.4), 4 mM CaCl2, 10 μg/mL saponin, and 0.1% (w/v) ascorbic acid. Membranes were preincubated using 1.75 μg membrane protein and 0.25 mg FlashBlue scintillation beads (PerkinElmer catalogue #FB001) per well at 4° for 30 min. […] Test compounds or assay controls for total and non-specific binding were diluted in DMSO as 100× solutions and serially diluted by half log concentrations on a Perkin Elmer JANUS Automated Workstation. Serotonin (10 μM final concentration) was used to determine non-specific binding in the assay. Plates were read using the Microbeta Trilux 1450 LSC and luminescence counter. Data were analyzed by nonlinear […] using the dose-response equation (variable slope) to calculate IC50 in XLfit4 (ID Business Solutions Inc.): y=(Bottom+((Top−Bottom)/(1+((IC50/x)^Hill slope))))
Ki value was then calculated according to the Cheng-Prusoff method using the equation below (Cheng and Prusoff, 1973): Ki,app=IC50/(1+[radioligand]/Kd))

Where only a bound is given, the exact number is not on record here.

The values that follow come from patent US8765779B2, “Tricyclic derivatives and their pharmaceutical use and compositions” (Cephalon, Inc., priority 2009, dated 2014).

T1 sequence (P50406 whole entry): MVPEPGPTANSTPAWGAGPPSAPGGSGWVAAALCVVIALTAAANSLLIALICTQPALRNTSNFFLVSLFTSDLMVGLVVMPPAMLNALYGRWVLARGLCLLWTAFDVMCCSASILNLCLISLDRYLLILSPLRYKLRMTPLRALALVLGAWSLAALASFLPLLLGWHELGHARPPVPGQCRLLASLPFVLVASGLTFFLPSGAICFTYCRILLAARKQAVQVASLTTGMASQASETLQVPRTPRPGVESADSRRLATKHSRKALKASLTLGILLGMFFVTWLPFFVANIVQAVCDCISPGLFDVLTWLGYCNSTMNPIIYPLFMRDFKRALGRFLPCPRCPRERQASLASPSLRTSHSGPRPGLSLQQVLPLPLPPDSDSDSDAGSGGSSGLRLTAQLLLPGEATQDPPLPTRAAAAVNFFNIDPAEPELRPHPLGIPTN

With `CCOc1cc(F)cc(S(=O)(=O)c2ccc3c(c2)OC2CNCCC32C)c1` (stereo not shown) [Example 426], the Ki (as a rule, the equilibrium dissociation constant of an inhibitor or competing ligand from its target) was below 500 nM. `O=S(=O)(Cc1cccc(Cl)c1)Oc1ccc2c(c1)C1CCNCC1O2` (stereo not shown) [Example 752]: the Ki was above 1000 nM. As for `Cc1nc(S(=O)(=O)Oc2ccc3c(c2)OC2CNCCC32)cn1C` (stereo not shown) [Example 645], the figure is above 1000 nM.

`O=S(=O)(CC1CCCCC1)Oc1ccc2c(c1)OC1CNCCC21` (stereo not shown) [Example 690]: the Ki was above 1000 nM. To `COc1ccc(S(=O)(=O)c2ccc3c4c(oc3c2)C(C)NCC4)cc1F` (stereo not shown) [Example 236] belongs below 500 nM; to `CC12CCNCC1Oc1ccc(OS(=O)(=O)c3ccc(Oc4ccccc4)nc3)cc12` (stereo not shown) [Example 782], above 1000 nM. As for `O=S(=O)(Nc1cc(Cl)cc(Cl)c1)c1ccc2c(c1)C1CCNCC1O2` (stereo not shown) [Example 843], the figure is above 1000 nM; as for `O=S(=O)(c1ccc2c(c1)OC1CNCCC21)C1CCCCC1` (stereo not shown) [Example 154], above 1000 nM; as for `O=S(=O)(c1ccc2oc3c(c2c1)CCNC3)c1ccccn1` [Example 353], below 500 nM. `CC(C)Oc1cccc(S(=O)(=O)c2ccc3c4c(oc3c2)CNCC4)c1` [Example 217]: the Ki was below 500 nM. As for `O=S(=O)(Oc1ccc2c(c1)OC1CNCCC21)c1ccc2ccccc2c1` (stereo not shown) [Example 661], the figure is below 500 nM; as for `O=S(=O)(c1cccc(Cl)c1)c1ccc2c3c(oc2c1)C1CCN1CC3` (stereo not shown) [Example 621], below 500 nM. As for `O=S(=O)(Oc1ccc2c(c1)OC1CNCCC21)c1cccc(F)c1` (stereo not shown) [Example 643], the figure is below 500 nM. As for `COc1ccc(S(=O)(=O)c2ccc3c(c2)C2CCNCC2O3)cc1` (stereo not shown) [Example 336], the figure is above 1000 nM; as for `CC(=O)N1CCC2(CC1)NCCc1c2oc2cc(S(=O)(=O)c3cccc(F)c3)ccc12` [Example 41, 1-{7-[(3-fluorophenyl)sulfonyl]-3,4-dihydro-1′H,2H-spiro[1-benzofuro[2,3-c]pyridine-1,4′-piperidin]-1′-yl}ethanone], below 500 nM; as for `O=S(=O)(Nc1ccc(Cl)cc1)c1ccc2c(c1)C1CCNCC1O2` (stereo not shown) [Example 836, N-(4-Chlorophenyl)-1,2,3,4,4a,9a-hexahydro[1]benzofuro[2,3-c]pyridine-6-sulfonamide], above 1000 nM. As to `CC(C)(C)c1ccc(S(=O)(=O)Oc2ccc3c(c2)C2(C)CCNCC2O3)cc1` (stereo not shown) [Example 774], the Ki was above 1000 nM. As for `COc1ccc(S(=O)(=O)Nc2ccc3c(c2)C2CCNCC2O3)cc1` (stereo not shown) [Example 821], the figure is above 1000 nM; as for `CN1CCC2c3ccc(S(=O)(=O)c4ccccc4)cc3OC2C1` (stereo not shown) [Example 607], below 500 nM. As for `Ic1ccc2c3c([nH]c2c1)C1(CCCOC1)NCC3` (stereo not drawn) [Example 547, 7-Iodo-2,3,4,5′,6′,9-hexahydro-4′H-spiro[beta-carboline-1,3′-pyran]trifluoroacetate], the figure is below 500 nM; as for `O=S(=O)(Nc1cccc(Cl)c1)c1ccc2c(c1)C1CCNCC1O2` (stereo not shown) [Example 853], 500 to 1000 nM; as for `CN(C)c1cccc(S(=O)(=O)c2ccc3oc4c(c3c2)CCNC4)c1` [Example 355], above 1000 nM.

As for `CC(C)CC1(C)NCCc2c1oc1cc(S(=O)(=O)c3cccc(F)c3)ccc21` (racemic) [Example 36, 7-[(3-fluorophenyl)sulfonyl]-1-methyl-1-(2-methylpropyl)-1,2,3,4-tetrahydro[1]benzofuro[2,3-c]pyridine], the Ki was below 500 nM.

Consider `O=S(=O)(c1ccc(Oc2ccccc2)cc1)c1ccc2c(c1)C1CCNCC1O2` (stereo not shown) [Example 173], for which the Ki was above 1000 nM.

`COc1ccc(S(=O)(=O)Oc2ccc3c(c2)OC2CNCCC32)cc1` (stereo not shown) [Example 650]: the Ki was below 500 nM. As for `O=S(=O)(c1ccc2c(c1)OC1CNCCC21)c1cccc(Cl)c1Cl` (stereo not shown) [Example 123], the figure is below 500 nM; as for `O=S(=O)(c1ccc2c(c1)OC1CNCCC21)c1cccc(F)c1F` (stereo not shown) [Example 399], below 500 nM; as for `CC(C)Oc1ncccc1S(=O)(=O)c1ccc2c3c(oc2c1)CNCC3` [Example 439], below 500 nM. To `O=S(=O)(Oc1ccc2c(c1)C1CCNCC1O2)c1cc2ccccc2s1` (stereo not shown) [Example 724] belongs below 500 nM.

For `CC1(C)NCCc2c1oc1cc(S(=O)(=O)c3cccc4c3OC(F)(F)O4)ccc21` [Example 465], the Ki is below 500 nM. To `CC1(C)NCCc2c1oc1cc(S(=O)(=O)c3cncc(Br)c3)ccc21` [Example 367] belongs below 500 nM; to `Cc1c(Cl)cccc1S(=O)(=O)Oc1ccc2c(c1)OC1CNCCC21` (stereo not shown) [Example 658], below 500 nM; to `CC(=O)NCCC1NCCc2c1oc1ccc(S(=O)(=O)c3cccc(F)c3)cc21` (stereo not shown) [Example 532, N-(2-{6-[(3-fluorophenyl)sulfonyl]-1,2,3,4-tetrahydro[1]benzofuro[2,3-c]pyridin-1-yl}ethyl)acetamide], 500 to 1000 nM. As for `O=S(=O)(c1ccc2c(c1)OC1CNCCC21)c1cccc2c1OCCO2` (stereo not shown) [Example 457], the figure is below 500 nM; as for `O=S(=O)(c1cccc(OCC2CCCCO2)c1)c1ccc2c(c1)OC1CNCCC21` (stereo not shown) [Example 553], below 500 nM; as for `O=S(=O)(c1cccc(OCC(F)F)c1)c1ccc2c(c1)OC1CNCCC21` (stereo not shown) [Example 578], below 500 nM. For `CC12CCNCC1Oc1cc(S(=O)(=O)c3cncc(F)c3)ccc12` (stereo not shown) [Example 429], the Ki was above 1000 nM. To `CC1NCCc2c1oc1ccc(S(=O)(=O)c3cccc(F)c3)cc21` (stereo not shown) [Example 283] belongs below 500 nM; to `CC(C)Oc1cccc(S(=O)(=O)c2ccc3c4c(oc3c2)C(C)(C)NCC4)c1` [Example 15, 1,1-dimethyl-7-{[3-(propan-2-yloxy)phenyl]sulfonyl}-1,2,3,4-tetrahydro[1]benzofuro[2,3-c]pyridine], below 500 nM; to “7-[(3,5-Difluorophenyl)sulfonyl]-2′,3,3′,4,4a,5′,6′,9a-octahydro-2H-spiro[1-benzofuro[2,3-c]pyridine-1,4′-pyran]hydrochloride [Example 623]”, above 1000 nM. On to `O=S(=O)(Oc1ccc2c(c1)OC1CNCCC21)c1ccc(-c2ccccc2)cc1` (stereo not shown) [Example 681], for which the Ki was below 500 nM.

`O=S(=O)(c1ccc2c(c1)OC1CNCCC21)c1cccnc1F` (stereo not shown) [Example 398]: the Ki was below 500 nM. As for `O=S(=O)(Nc1cccc2ccccc12)c1ccc2c(c1)C1CCNCC1O2` (stereo not shown) [Example 837], the Ki is above 1000 nM.

Consider `O=S(=O)(c1cncc(Cl)c1)c1ccc2c(c1)OC1CNCCC21` (stereo not shown) [Example 392], for which the Ki is below 500 nM.

For the compound `O=S(=O)(c1cccc(Cl)c1)c1ccc2c3c(oc2c1)C(CCC(F)(F)F)NCC3` (stereo not shown) [Example 522], the Ki is below 500 nM.

For `O=S(=O)(c1cncc(C(F)(F)F)c1)c1ccc2c(c1)OC1CNCCC21` (stereo not shown) [Example 464], the Ki is below 500 nM. As for `O=S(=O)(c1ccc2c(c1)OC1CNCCC21)c1cccc(OCC2CCOCC2)c1Cl` (stereo not shown) [Example 485], the figure is below 500 nM; as for `CN(C)C(=O)CC1(C)NCCc2c1oc1cc(S(=O)(=O)c3cccc(F)c3)ccc21` (single isomer, unassigned) [Example 50, 2-{7-[(3-fluorophenyl)sulfonyl]-1-methyl-1,2,3,4-tetrahydro[1]benzofuro[2,3-c]pyridin-1-yl}-N,N-dimethylacetamide], below 500 nM. To `Cc1c(S(=O)(=O)Oc2ccc3c(c2)C2(C)CCNCC2O3)sc2ccc(Cl)cc12` (stereo not shown) [Example 783] belongs 500 to 1000 nM; to `O=S(=O)(c1ccc2c3c(oc2c1)CNCC3)c1ccccc1-c1ccccc1` [Example 232], below 500 nM; to `O=S(=O)(c1cccc(OCc2cnccn2)c1)c1ccc2c(c1)OC1CNCCC21` (stereo not shown) [Example 567], below 500 nM. As for `CC(C)c1ccc(S(=O)(=O)Oc2ccc3c(c2)C2CCNCC2O3)cc1` (stereo not shown) [Example 716], the figure is below 500 nM. `NC(=O)COc1cccc(S(=O)(=O)c2ccc3c(c2)OC2CNCCC32)c1` (stereo not shown) [Example 563]: the Ki is above 1000 nM. To `O=S(=O)(c1cccc2c1OC1CNCCC21)c1cccc2ccccc12` (stereo not shown) [Example 184] belongs below 500 nM; to `O=S(=O)(c1ccccc1)c1ccc2c3c(oc2c1)C1(CCOCC1)NCC3` [Example 296], below 500 nM.
